Measured values taken from patent publication US20090030037A1, “Sustained Release Formulation and Dosing Schedules of Leukotriene Synthesis Inhibitor for Human Therapy” (deCODE Genetics ehf., priority 2005, published 2009).

Assays:
Assay type in all cases: in vivo, human
[1] = system: CD40L; experiment: Study DG-031-204: CD40L; settings: after 4 weeks
Procedure: An additional single site, open label study was carried out to obtain biomarker and safety data on additional DG-031 doses (i.e., 1000 mg and 1500 mg). This study examined the safety, tolerability and dose-related effects of DG-031 on inflammatory biomarkers including: LTB4, hsCRP, and MPO. A total of 119 patients with a prior history of CAD and MI were randomized to receive either 1000 mg DG-031 (500 mg BID) or 1500 mg DG-031 (500 mg TID) daily for 4-6 weeks. Treatment with DG-031 in addition to the subject's standard care, medication, and treatment, was prescribed by the patient's cardiologist. A majority of the subjects received statin therapy before, during and after the study. Follow-up assessments were performed 2 weeks after the end of study drug administration.
The biomarkers were analyzed as described in Example 1. Statistical analysis of the data was carried out using a one-sample t-test on change from baseline with a two-sided nominal significance level of 0.050. Biomarker concentrations were log-transformed and a simple last observation carried forward (LOCF) scheme was used to impute missing observations.
CD40L was measured at 2-week intervals. […] After 4 weeks, there was a 22% (p<0.001; n=55) reduction in CD40L in the 500 mg BID group and a 21% (p<0.001; n=57) reduction in the 500 mg TID group. CD40L levels remained suppressed at the 2 week follow up visit.

[2] = system: LDL cholesterol; experiment: Study DG-031-201: LDL cholesterol; settings: highest dose of DG-031
Procedure: (§1) Patients who met the study eligibility criteria were enrolled and randomized into 3 different dose-level groups: (1) 64 patients on 250 mg/day therapy with DG-031 (250 mg q.d.), vs placebo; (2) 64 patients on 500 mg/day therapy with DG-031 (250 mg b.i.d.) vs placebo; and (3) 63 patients on 750 mg/day therapy with DG-031 (250 mg t.i.d.) vs placebo. […] All patients received 3 tablets per day. Treatment periods, 4 weeks in duration each, were separated by a 2-week washout period. The placebo tablets were identical in shape, color, form and taste to the active tablets except that they contained no active drug ingredients. Treatment with DG-031 or placebo was in addition to the subject's standard care, including all medications and treatment plan as prescribed by the subject's cardiologist prior to enrolment. A total of 191 subjects were enrolled, with 172 completing all 8 visits or 8 patients short of the target of 180 patients.
All data were analyzed according to a pre-established statistical analysis plan (SAP) and by intention-to-treat (ITT). Each arm of the study, as well as pooled sets (combining dose levels), was considered for the primary analysis. […] The difference between DG-031 and placebo treatment was the primary outcome, assessed separately for each of the biomarkers. […]

[3] = system: Lp-PLA2; experiment: Study DG-031-201: Lp-PLA2; settings: 2 lower doses (250 mg/day and 500 mg/day)
Procedure: Genet. 2004). Apart from FLAP, allele A of the SNP SG12S25 in the LTA4 hydrolase gene, another gene in the LT pathway, is also associated with MI, as described in PCT application no. PCT/US03/32556 and PCT/US04/30582 incorporated by reference.
as §1, with “A total of 191 subjects were enrolled, with 172 completing all 8 visits or 8 patients short of the target of 180 patients.” left out
All data were analyzed according to a pre-established statistical analysis plan (SAP) and by intention-to-treat (ITT). […] The difference between DG-031 and placebo treatment was the primary outcome, assessed separately for each of the biomarkers. […]

O=C(O)[C@@H](c1ccc(OCc2ccc3ccccc3n2)cc1)C1CCCC1 [DG-031, (R)-(+)-alpha-cyclopentyl-4-(2-quinolinylmethoxy)-Benzeneacetic acid]
Reduction in CD40L ([1]; 500 mg BID): 22%
Reduction in CD40L ([1]; 500 mg TID): 21%
Increase in LDL cholesterol [2]: 8%
Effects on Lp-PLA2 [3]: not significant
